# Assay results from US20050095240A1, “NaCT as a target for lifespan expansion and weight reduction” (Medical College of Georgia Research, priority 2002, published 2005).
# Read-outs that look alike come from different tables or passages of the source.
# T1: rat NaCT (Rattus norvegicus, UniProt Q8CJ44)
# T1 sequence (Q8CJ44 1-572): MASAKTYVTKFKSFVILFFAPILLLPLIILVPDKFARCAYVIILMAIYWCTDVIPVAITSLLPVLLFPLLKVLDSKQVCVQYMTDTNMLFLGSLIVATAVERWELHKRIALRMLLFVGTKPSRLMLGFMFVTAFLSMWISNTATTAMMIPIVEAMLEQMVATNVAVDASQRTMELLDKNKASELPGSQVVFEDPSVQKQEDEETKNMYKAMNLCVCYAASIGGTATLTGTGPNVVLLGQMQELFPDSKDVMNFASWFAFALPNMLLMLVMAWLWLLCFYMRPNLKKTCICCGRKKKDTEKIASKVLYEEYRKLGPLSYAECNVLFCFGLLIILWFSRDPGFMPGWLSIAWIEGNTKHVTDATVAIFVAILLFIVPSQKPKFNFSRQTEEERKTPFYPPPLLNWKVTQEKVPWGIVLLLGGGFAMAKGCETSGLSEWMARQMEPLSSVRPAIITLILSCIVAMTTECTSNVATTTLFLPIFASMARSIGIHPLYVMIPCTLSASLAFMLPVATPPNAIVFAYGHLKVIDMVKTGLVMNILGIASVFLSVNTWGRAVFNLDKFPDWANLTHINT
# T2: mouse NaCT (Mus musculus, UniProt Q67BT3)
# T2 sequence (Q67BT3 1-572): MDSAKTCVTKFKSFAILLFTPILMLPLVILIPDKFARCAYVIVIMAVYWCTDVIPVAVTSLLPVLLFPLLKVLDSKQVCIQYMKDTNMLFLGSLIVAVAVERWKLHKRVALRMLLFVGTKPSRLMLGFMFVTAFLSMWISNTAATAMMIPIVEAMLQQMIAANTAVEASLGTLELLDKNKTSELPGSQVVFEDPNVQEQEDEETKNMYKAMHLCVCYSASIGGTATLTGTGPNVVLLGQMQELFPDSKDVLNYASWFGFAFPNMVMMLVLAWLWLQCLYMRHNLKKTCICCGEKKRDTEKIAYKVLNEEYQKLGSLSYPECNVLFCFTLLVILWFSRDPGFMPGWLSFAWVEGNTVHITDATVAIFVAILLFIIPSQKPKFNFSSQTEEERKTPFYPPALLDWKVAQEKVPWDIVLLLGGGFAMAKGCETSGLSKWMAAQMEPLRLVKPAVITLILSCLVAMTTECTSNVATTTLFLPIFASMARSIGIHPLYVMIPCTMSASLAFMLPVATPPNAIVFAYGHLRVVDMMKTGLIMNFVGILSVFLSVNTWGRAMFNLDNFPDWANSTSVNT
# T3: ceNaCT (Caenorhabditis elegans, UniProt P32739, I91S/L182M)
# T3 sequence (P32739 1-551 I91S/L182M): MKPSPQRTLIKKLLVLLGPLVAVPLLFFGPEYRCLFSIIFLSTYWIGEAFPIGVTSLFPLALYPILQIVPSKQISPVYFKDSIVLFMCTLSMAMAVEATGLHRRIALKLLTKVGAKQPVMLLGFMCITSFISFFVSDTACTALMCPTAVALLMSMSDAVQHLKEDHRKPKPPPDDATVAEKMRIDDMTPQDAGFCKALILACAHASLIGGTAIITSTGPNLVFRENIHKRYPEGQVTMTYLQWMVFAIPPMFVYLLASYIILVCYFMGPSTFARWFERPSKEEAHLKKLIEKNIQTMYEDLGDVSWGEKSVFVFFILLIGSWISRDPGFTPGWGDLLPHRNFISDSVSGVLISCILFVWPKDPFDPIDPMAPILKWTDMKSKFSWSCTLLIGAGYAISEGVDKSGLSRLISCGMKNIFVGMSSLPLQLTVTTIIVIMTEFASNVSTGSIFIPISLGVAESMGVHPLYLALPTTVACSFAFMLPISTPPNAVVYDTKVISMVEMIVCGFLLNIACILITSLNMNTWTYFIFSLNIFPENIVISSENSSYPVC
# What was measured:
# NaCT in HepG2 cells = molecular target: T4, NaCT in HepG2 cells (Homo sapiens, UniProt Q86YT5); experiment: Citrate uptake in HepG2 cells (constitutively expressed NaCT); assay type: cell-based
# T4 construct: the effect of Li^+ on constitutively expressed NaCT in human liver cells was studied; host or cells: HepG2
# Procedure: Uptake measurement in human liver cell lines. The human liver cell lines (HepG2 and Huh-7) were cultured to confluency in 24-well culture plates using appropriate culture medium. The HepG2 cell line was obtained from American Type Culture Collection (Manasses, Va.). The Huh-7 cell line (Bode et al., (2002) Am. J. Physiol. 283, G1062-G1073) was provided by Dr. Barrie P. Bode (St. Louis University, St. Louis, Mo.). Uptake measurements in monolayer cultures of these cells were measured as described above for the heterologously expressed NaCTs.
# rat NaCT [1] = molecular target: T1, rat NaCT; experiment: Uptake via rat NaCT expressed in HRPE cells; assay type: cell-based
# human NaCT = human NaCT (Homo sapiens, UniProt Q86YT5); experiment: Uptake via human NaCT expressed in HRPE cells; assay type: cell-based
# mouse NaCT = molecular target: T2, mouse NaCT; experiment: Transport via mouse NaCT expressed in HRPE cells; assay type: cell-based
# zebrafish NaCT = zebrafish NaCT (Danio rerio, UniProt A0A2R8QQN0, K78Q); experiment: Citrate uptake via zebrafish NaCT expressed in HRPE cells; assay type: cell-based; conditions: for Citrate uptake, zfNaCT, percent of corresponding control: 30 min
# [2] = cited from earlier work
# ceNaCT = molecular target: T3, ceNaCT; experiment: Uptake via ceNaCT expressed in HRPE cells
# rat NaCT [3] = molecular target: T1, rat NaCT; experiment: Rat NaCT in X. laevis oocytes, voltage clamp and charge-to-substrate ratio; assay type: cell-based
# drIndy = drIndy (Drosophila melanogaster, UniProt Q9VVT2)
# [4] = substrate: O=C(O)CC(O)(CC(=O)O)C(=O)O; experiment: cells, lysate or membranes; conditions: other: pH 7.5, 37.0 °C
# [5] = Li+ 2 mM, valproate 0.6 μM, carbamazepine 50 μM
# [6] = [14C]-citrate 20 μM, unlabeled compound 2.5 mM
# [7] = [14C]-citrate 20 μM, unlabeled compound 2.5 mM, none = 100
# [8] = [3H]-succinate 0.1 μM, substrate analog 2 mM
# [9] = [3H]-succinate 0.1 μM, substrate analog 2 mM, control = 100
# [10] = [14C]-citrate 10 μM, substrate analog 2 mM
# [11] = [14C]-citrate 10 μM, substrate analog 2 mM, control = 100
# [12] = competitor 2.5 mM, [14C]citrate 15 μM
# Chain of drIndy (Q9VVT2 19-590): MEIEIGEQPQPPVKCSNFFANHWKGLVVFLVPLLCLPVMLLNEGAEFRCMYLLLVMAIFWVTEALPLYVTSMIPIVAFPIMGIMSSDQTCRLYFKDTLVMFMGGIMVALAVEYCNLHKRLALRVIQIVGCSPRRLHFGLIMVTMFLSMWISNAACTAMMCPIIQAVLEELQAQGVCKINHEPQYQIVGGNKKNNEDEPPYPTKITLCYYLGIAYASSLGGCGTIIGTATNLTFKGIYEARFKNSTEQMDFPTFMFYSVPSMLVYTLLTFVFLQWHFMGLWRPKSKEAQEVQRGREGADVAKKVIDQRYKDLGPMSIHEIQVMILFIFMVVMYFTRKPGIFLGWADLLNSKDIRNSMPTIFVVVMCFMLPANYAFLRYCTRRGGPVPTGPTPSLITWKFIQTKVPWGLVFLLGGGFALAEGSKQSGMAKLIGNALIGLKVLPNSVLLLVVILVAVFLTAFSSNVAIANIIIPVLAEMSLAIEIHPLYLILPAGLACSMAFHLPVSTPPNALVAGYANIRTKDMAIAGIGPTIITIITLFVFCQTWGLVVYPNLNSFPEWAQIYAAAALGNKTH
# T4 sequence (Q86YT5 whole entry): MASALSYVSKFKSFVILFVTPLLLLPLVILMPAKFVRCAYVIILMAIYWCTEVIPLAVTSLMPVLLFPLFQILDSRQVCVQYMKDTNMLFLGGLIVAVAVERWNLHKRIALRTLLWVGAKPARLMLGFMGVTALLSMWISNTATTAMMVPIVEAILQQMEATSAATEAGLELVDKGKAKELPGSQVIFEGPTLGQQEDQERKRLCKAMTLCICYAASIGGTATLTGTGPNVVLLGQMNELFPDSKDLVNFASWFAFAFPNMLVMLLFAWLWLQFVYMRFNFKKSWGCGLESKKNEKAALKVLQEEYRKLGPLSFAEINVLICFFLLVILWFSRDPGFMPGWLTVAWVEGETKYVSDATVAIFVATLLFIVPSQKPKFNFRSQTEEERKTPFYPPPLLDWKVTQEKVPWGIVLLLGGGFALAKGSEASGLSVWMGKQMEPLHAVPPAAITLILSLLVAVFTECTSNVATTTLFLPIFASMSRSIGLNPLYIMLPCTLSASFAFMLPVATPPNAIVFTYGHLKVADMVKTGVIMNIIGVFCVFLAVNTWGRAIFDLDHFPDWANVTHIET
# Chain of human NaCT (Q86YT5 whole entry): as above
# Chain of zebrafish NaCT (A0A2R8QQN0 2-582 K78Q): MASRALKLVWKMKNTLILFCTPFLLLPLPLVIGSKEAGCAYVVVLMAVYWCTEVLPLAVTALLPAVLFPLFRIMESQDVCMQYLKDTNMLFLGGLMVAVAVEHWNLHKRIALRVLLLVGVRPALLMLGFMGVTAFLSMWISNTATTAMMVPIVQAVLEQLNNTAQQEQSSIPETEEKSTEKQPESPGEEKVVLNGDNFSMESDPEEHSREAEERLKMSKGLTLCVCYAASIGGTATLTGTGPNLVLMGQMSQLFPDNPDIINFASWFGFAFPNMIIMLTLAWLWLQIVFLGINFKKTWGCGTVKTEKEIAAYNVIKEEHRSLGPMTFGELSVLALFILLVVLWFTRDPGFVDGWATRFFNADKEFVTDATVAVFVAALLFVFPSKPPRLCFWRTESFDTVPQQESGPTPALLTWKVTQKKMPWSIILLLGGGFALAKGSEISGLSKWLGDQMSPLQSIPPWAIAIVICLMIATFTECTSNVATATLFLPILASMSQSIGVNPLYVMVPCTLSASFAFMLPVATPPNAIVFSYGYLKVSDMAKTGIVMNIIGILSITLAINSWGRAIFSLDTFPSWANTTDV
molecule,measurement,setting,value
tunicamycin,Effect on NaCT activity in HepG2 cells,NaCT in HepG2 cells; treatment of HepG2 cells with tunicamycin,significant inhibition
"NC(=O)N1c2ccccc2C=Cc2ccccc21 [Carbamazepine, carbamazepine]","Citrate uptake, rNaCT",rat NaCT [1]; [5],133.5 ± 0.7 pmol/10^6 cells/min
same,"Citrate uptake, rNaCT, percent of corresponding control",rat NaCT [1]; [5],90%
same,"Citrate uptake, hNaCT",human NaCT; [5],54.1 ± 2.6 pmol/10^6 cells/min
same,"Citrate uptake, hNaCT, percent of corresponding control",human NaCT; [5],105%
same,"Citrate uptake, mNaCT",mouse NaCT; [5],43.7 ± 2.0 pmol/10^6 cells/min
same,"Citrate uptake, mNaCT, percent of corresponding control",mouse NaCT; [5],103%
same,"Citrate uptake, zfNaCT",zebrafish NaCT,441.0 ± 2.7 (91) pmol/10^6 cells/min
same,"Citrate uptake, zfNaCT, percent of corresponding control",zebrafish NaCT; hrpe cells,441.0 ± 2.7 (91) percent
same,"Citrate uptake, HepG2 cells",NaCT in HepG2 cells; [5],10.0 ± 0.2 pmol/min/mg protein
same,"Citrate uptake, HepG2 cells, percent of corresponding control",NaCT in HepG2 cells; [5],106%
same,Therapeutic plasma levels in humans,"[2]; human, in vivo",20 to 50 µM
same,"Citrate uptake, ceNaCT",ceNaCT; [5],45.1 ± 1.5 pmol/10^6 cells/min
same,"Citrate uptake, ceNaCT, percent of corresponding control",ceNaCT; [5],104%
"O=C(O)/C=C(/CC(=O)O)C(=O)O [cis-Aconitate, cis-aconitate]",[^14C]-Citrate Uptake (cDNA-specific),human NaCT; [6],55.5 ± 3.3 pmol/10^6 cells/min
same,"[^14C]-Citrate Uptake, %",human NaCT; [7],116%
same,[^3H]-Succinate transport (NaCT-specific),mouse NaCT; [8],0.062 ± 0.005 pmol/10^6 cells/min
same,"[^3H]-Succinate transport, %",mouse NaCT; [9],43%
same,[^14C]-Citrate transport (NaCT-specific),mouse NaCT; [10],18.1 ± 1.8 pmol/10^6 cells/min
same,"[^14C]-Citrate transport, %",mouse NaCT; [11],47%
same,Substrate-induced currents as % of citrate-induced currents,rat NaCT [3]; substrate 0.5 mM,approximately 10%
same,Competition with [^14C]citrate for ceNaCT-mediated uptake,ceNaCT; [12],did not compete with [^14C]citrate as effectively as unlabelled citrate
"CC(O)C(=O)O (centres unmarked) [Lactate, lactate]",[^14C]Citrate uptake (cDNA-specific),rat NaCT [1],89.6 ± 2.0 Pmol/10^6 cells/min
same,"[^14C]Citrate uptake, %",rat NaCT [1],83%
same,[^14C]-Citrate Uptake (cDNA-specific),human NaCT,61.2 ± 6.0 pmol/10^6 cells/min
same,"[^14C]-Citrate Uptake, %",human NaCT,128%
same,[^3H]-Succinate transport (NaCT-specific),mouse NaCT,0.162 ± 0.008 pmol/10^6 cells/min
same,"[^3H]-Succinate transport, %",mouse NaCT,111%
same,[^14C]-Citrate transport (NaCT-specific),mouse NaCT,29.8 ± 3.4 pmol/10^6 cells/min
same,"[^14C]-Citrate transport, %",mouse NaCT,78%
same,Substrate-induced currents,rat NaCT [3],no or little currents
same,% Control of cDNA-specific [^3H]succinate uptake,drIndy,77%
same,cDNA-specific [^3H] succinate uptake,drIndy; pH 7.5,111.2 ± 3.2 fmol/106 cells per min
same,Competition with [^14C]citrate for ceNaCT-mediated uptake,ceNaCT,only a minimal inhibition
"O=C(O)CC(O)C(=O)O (centres unmarked) [Malate, malate]",[^14C]Citrate uptake (cDNA-specific),"rat NaCT [1]; [14C]citrate 14 μM, unlabeled compound 2.5 mM",7.8 ± 0.1 Pmol/10^6 cells/min
same,"[^14C]Citrate uptake, %","rat NaCT [1]; [14C]citrate 14 μM, unlabeled compound 2.5 mM, none = 100",7%
same,IC50,human NaCT,3.12 ± 1.34 mM
same,[^14C]-Citrate Uptake (cDNA-specific),human NaCT; [6],29.5 ± 1.9 pmol/10^6 cells/min
same,"[^14C]-Citrate Uptake, %",human NaCT; [7],62%
same,[^3H]-Succinate transport (NaCT-specific),mouse NaCT; [8],0.004 ± 0.001 pmol/10^6 cells/min
same,"[^3H]-Succinate transport, %",mouse NaCT; [9],3%
same,[^14C]-Citrate transport (NaCT-specific),mouse NaCT; [10],0.2 ± 0.1 pmol/10^6 cells/min
same,"[^14C]-Citrate transport, %",mouse NaCT; [11],1%
same,% Control of cDNA-specific [^3H]succinate uptake,"drIndy; [3H]succinate 40 nM, inhibitor 2.5 mM",8%
same,cDNA-specific [^3H] succinate uptake,"drIndy; [3H]succinate 40 nM, inhibitor 2.5 mM, NaCl buffer pH 7.5",6.8 ± 2.7 fmol/106 cells per min
same,Competition with [^14C]citrate for ceNaCT-mediated uptake,ceNaCT; [12],inhibited markedly
O=C(O)/C=C\C(=O)O [Maleate],[^14C]Citrate uptake (cDNA-specific),rat NaCT [1],78.8 ± 1.5 Pmol/10^6 cells/min
same,"[^14C]Citrate uptake, %",rat NaCT [1],73%
same,[^14C]-Citrate Uptake (cDNA-specific),human NaCT,58.0 ± 6.7 pmol/10^6 cells/min
same,"[^14C]-Citrate Uptake, %",human NaCT,121%
same,[^3H]-Succinate transport (NaCT-specific),mouse NaCT,0.165 ± 0.014 pmol/10^6 cells/min
same,"[^3H]-Succinate transport, %",mouse NaCT,113%
same,[^14C]-Citrate transport (NaCT-specific),mouse NaCT,31.2 ± 2.5 pmol/10^6 cells/min
same,"[^14C]-Citrate transport, %",mouse NaCT,82%
same,% Control of cDNA-specific [^3H]succinate uptake,drIndy,85%
same,cDNA-specific [^3H] succinate uptake,drIndy; pH 7.5,123.1 ± 7.6 fmol/106 cells per min
same,Competition with [^14C]citrate for ceNaCT-mediated uptake,ceNaCT,failed to compete with citrate
"CCCC(CCC)C(=O)O [Valproate, valproate]","Citrate uptake, rNaCT, percent of corresponding control",rat NaCT [1]; [5],96%
same,"Citrate uptake, hNaCT, percent of corresponding control",human NaCT; [5],111%
same,"Citrate uptake, mNaCT, percent of corresponding control",mouse NaCT; [5],100%
same,"Citrate uptake, zfNaCT, percent of corresponding control",zebrafish NaCT; [5],93.2%
same,"Citrate uptake, HepG2 cells, percent of corresponding control",NaCT in HepG2 cells; [5],105%
same,Plasma concentrations / therapeutic plasma levels in humans,[2]; patients under treatment,0.3 to 0.6 mM
same,"Citrate uptake, ceNaCT, percent of corresponding control",ceNaCT; [5],106%
ceNaCT (Caenorhabditis elegans; I91S/L182M) (protein) MKPSPQRTLIKKLLVLLGPLVAVPLLFFGPEYRCLFSIIFLSTYWIGEAFPIGVTSLFPLALYPILQIVPSKQISPVYFKDSIVLFMCTLSMAMAVEATGLHRRIALKLLTKVGAKQPVMLLGFMCITSFISFFVSDTACTALMCPTAVALLMSMSDAVQHLKEDHRKPKPPPDDATVAEKMRIDDMTPQDAGFCKALILACAHASLIGGTAIITSTGPNLVFRENIHKRYPEGQVTMTYLQWMVFAIPPMFVYLLASYIILVCYFMGPSTFARWFERPSKEEAHLKKLIEKNIQTMYEDLGDVSWGEKSVFVFFILLIGSWISRDPGFTPGWGDLLPHRNFISDSVSGVLISCILFVWPKDPFDPIDPMAPILKWTDMKSKFSWSCTLLIGAGYAISEGVDKSGLSRLISCGMKNIFVGMSSLPLQLTVTTIIVIMTEFASNVSTGSIFIPISLGVAESMGVHPLYLALPTTVACSFAFMLPISTPPNAVVYDTKVISMVEMIVCGFLLNIACILITSLNMNTWTYFIFSLNIFPENIVISSENSSYPVC,Km,[4],76 ± 14 µM
